Measurements as given in patent US6368812B1 (priority 1996, dated 2002).

Experiments:
[1] = biological target: T1, Hum GALR1 (Homo sapiens, UniProt P47211); assay: porcine 125I-galanin binding assay, Hum GALR1 LM(tk-); details: Table 10
T1 sequence (P47211 1-349): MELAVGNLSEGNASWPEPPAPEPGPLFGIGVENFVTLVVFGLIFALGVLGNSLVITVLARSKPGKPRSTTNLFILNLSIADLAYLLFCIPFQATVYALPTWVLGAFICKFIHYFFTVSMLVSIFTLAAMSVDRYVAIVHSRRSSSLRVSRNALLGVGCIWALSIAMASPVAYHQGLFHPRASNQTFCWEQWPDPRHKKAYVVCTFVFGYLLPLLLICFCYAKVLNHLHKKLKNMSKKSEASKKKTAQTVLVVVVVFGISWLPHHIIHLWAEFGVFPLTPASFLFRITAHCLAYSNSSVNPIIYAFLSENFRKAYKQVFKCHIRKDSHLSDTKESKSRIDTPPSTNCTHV

[2] = biological target: T2, rat GALR1 (Rattus norvegicus, UniProt Q62805); assay: biochemical; format: binding; details: Table 9; read-out: Ki (nM) Rat GalR1 CHO
T2 construct: expressed in transfected cells; host or cells: CHO
T2 sequence (Q62805 1-346): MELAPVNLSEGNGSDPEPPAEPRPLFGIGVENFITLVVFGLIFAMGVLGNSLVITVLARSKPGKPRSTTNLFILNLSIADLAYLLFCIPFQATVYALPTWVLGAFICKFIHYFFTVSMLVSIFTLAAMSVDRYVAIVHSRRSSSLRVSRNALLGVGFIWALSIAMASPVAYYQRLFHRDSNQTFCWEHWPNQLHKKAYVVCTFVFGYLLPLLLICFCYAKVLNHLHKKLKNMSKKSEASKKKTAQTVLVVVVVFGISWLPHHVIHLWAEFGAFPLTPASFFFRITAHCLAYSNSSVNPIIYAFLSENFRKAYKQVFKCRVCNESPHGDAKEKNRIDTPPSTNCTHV

[3] = biological target: T3, Hum GALR2 (Homo sapiens, UniProt O43603); assay: porcine 125I-galanin binding assay, Hum GALR2 CHO
T3 construct: expressed in transfected cells; host or cells: CHO
T3 sequence (O43603 1-387): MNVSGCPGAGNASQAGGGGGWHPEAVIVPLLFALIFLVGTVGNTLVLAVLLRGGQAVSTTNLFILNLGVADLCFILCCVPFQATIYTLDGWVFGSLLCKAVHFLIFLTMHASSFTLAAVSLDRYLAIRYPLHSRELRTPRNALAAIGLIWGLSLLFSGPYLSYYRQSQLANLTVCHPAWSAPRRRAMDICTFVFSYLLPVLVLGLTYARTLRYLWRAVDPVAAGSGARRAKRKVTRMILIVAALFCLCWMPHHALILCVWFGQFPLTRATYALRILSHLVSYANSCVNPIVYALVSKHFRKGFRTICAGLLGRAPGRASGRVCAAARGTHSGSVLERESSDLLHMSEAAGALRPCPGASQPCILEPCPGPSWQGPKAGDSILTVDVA

[4] = biological target: T4, rat GALR2 (Rattus norvegicus, UniProt O08726); assay: porcine 125I-galanin binding assay, Rat GALR2 LMTK #4
T4 construct: expressed in transfected cells
T4 sequence (O08726 1-372): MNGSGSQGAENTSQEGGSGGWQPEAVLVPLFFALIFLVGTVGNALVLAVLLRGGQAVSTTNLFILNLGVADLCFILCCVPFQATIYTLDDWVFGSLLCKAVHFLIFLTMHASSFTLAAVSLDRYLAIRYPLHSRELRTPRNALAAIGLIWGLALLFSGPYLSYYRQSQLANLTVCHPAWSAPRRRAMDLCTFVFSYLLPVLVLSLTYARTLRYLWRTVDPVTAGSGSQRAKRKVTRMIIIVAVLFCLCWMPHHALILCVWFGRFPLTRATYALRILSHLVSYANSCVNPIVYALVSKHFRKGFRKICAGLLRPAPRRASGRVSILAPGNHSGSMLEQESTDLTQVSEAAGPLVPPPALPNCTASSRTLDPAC

[5] = biological target: T5, rat GALR3 (Rattus norvegicus, UniProt O88626); assay: porcine 125I-galanin binding, membranes of stable cell line 293-rGalR3-105; set-up: which comprises the entire coding region of rat GALR3; expressed in transfected cells; details: Ki (nM) Rat GALR3 293 #105, Table 9
T5 sequence (O88626 1-370): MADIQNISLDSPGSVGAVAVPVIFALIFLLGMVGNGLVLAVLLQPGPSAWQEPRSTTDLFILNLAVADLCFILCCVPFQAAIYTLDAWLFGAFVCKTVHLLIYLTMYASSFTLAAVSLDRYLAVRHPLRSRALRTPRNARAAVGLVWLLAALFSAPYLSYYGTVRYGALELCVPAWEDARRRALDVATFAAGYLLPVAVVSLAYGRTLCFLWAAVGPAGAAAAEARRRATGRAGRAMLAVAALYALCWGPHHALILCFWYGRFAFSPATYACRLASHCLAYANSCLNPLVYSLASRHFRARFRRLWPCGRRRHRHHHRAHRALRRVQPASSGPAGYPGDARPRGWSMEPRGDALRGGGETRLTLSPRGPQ

[6] = biological target: T6, human GALR3 (Homo sapiens, UniProt O60755); assay: porcine 125I-galanin binding, LM(tk-) cells stably expressing human GALR3 (L-hGalR3-228)
T6 construct: The full-length human GALR3 gene contains 1107 bp within its coding region, encoding for a predicted protein of 368 aa; expressed in transfected cells
T6 sequence (O60755 1-368): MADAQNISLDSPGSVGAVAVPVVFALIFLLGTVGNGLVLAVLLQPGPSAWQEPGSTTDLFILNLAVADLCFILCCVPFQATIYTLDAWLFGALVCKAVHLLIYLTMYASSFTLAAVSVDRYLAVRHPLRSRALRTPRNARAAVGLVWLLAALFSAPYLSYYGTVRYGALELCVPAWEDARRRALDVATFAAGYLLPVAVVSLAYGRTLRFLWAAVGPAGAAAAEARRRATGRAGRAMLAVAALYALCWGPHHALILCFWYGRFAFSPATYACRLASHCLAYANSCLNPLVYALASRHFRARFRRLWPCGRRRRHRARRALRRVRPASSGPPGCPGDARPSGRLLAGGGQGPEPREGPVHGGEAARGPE

[7] = biological target: T7, human α1A adrenergic receptor (Homo sapiens, UniProt P35348); format: cell-based
T7 construct: expressed in transfected cells; host or cells: Xenopus laevis oocytes, mRNA-injected
T7 sequence (P35348 1-466): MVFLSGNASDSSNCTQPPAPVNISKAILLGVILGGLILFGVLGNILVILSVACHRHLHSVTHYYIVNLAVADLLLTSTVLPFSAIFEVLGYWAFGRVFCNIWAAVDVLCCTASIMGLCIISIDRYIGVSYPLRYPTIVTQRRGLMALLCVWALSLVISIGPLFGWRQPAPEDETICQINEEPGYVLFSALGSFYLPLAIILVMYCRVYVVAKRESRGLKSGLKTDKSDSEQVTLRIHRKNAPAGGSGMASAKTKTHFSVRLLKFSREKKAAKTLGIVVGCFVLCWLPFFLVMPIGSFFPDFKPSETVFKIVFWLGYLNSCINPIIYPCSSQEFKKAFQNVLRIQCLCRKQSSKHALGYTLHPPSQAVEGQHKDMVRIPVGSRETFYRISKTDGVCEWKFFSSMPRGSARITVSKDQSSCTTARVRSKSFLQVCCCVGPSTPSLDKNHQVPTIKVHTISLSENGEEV
Protocol: FIG. 7 Pertussis toxin sensitivity of GalR3 and GalR1 stimulation of GIRK currents. […] . Number of observations appears in parenthesis below the x-axis. Apparent absence of a bar indicates an amplitude of 0 (no response above baseline).
5′-[…] […]-3′ (SEQ ID NO. 59). […] The new plasmid was designated M52.
Experiments were carried out at room temperature.

[8] = biological target: T5, rat GALR3; assay: porcine 125I-galanin binding, rat GALR3 transiently expressed in COS-7 cell membranes; set-up: which comprises the entire coding region of rat GALR3; expressed in transfected cells; host or cells: COS-7, transient; details: peptide displacement assays
Protocol: Assays were conducted at room temperature for 120 minutes, and leupeptin, aprotonin and phosphoramidon were omitted from the rat GALR3 assay, while bacitracin was added to 0.1%.

[9] = biological target: T6, human GALR3; assay: voltage clamp currents in Xenopus oocytes expressing hGALR3 and GIRK1/GIRK4; format: cell-based
Protocol: Activation of inwardly rectifying currents that are sensitive to 300 μM Ba^++ signifies GALR3 coupling to a Gαi or Gαo pathway in the oocytes.
Oocytes were isolated as described above, except that 3 mg/mL collagenase was used to defolliculate the oocytes.

[10] = food intake after intracerebroventricular injection in rats; details: injected i.c.v.
Protocol: Measurement of food intake was performed for 3 hours after injection, but other protocols may also be used. Saline was injected as a control, but it is understood that other vehicles may be required as controls for some peptides and compounds. […] A preferred anatomic location for injection is the hypothalamus, in particular, the paraventricular nucleus.

[11] = Ki (nM) Hum GALR3 LMTK− #8, Table 10

Row | SMILES | Ki [1] [nM] | Ki [2] [nM] | Ki [3] [nM] | Ki [4] [nM] | Ki [5] [nM] | Ki [6, 11] [nM] | Cl− currents in oocytes expressing α1a receptors [7] | binding affinity for rat GALR3 in words [8] | EC50 [9] [nM] | agonist activity at human GALR3 in oocytes [9] | Ki ([6]; Ki (nM) Human L-hGalR3-228, Table 5, stable) [nM] | Ki ([6]; human GALR3LM (tk−) Ki (nM), Table 8) [nM] | feeding / food intake in words [10]
1 | CC[C@H](C)[C@H](NC(=O)[C@H](C)NC(=O)[C@H](Cc1c[nH]cn1)NC(=O)[C@@H]1CCCN1C(=O)CNC(=O)[C@H](CC(C)C)NC(=O)[C@H](CC(C)C)NC(=O)[C@H](Cc1ccc(O)cc1)NC(=O)CNC(=O)[C@H](C)NC(=O)[C@H](CO)NC(=O)[C@H](CC(N)=O)NC(=O)[C@H](CC(C)C)NC(=O)[C@@H](NC(=O)[C@H](Cc1c[nH]c2ccccc12)NC(=O)CNC(=O)[C@H](CCCNC(=N)N)NC(=O)[C@H](CCCCN)NC(=O)[C@H](CCC(=O)O)NC(=O)[C@H](CCCCN)NC(=O)[C@@H](NC(=O)[C@@H]1CCCN1C(=O)[C@H](CO)NC(=O)CNC(=O)[C@@H](N)CC(C)C)C(C)C)[C@@H](C)O)C(=O)N[C@@H](CC(=O)O)C(=O)N[C@@H](CC(N)=O)C(=O)N[C@@H](Cc1c[nH]cn1)C(=O)N[C@@H](CCCNC(=N)N)C(=O)N[C@@H](CO)C(=O)N[C@@H](Cc1ccccc1)C(=O)N[C@@H](Cc1c[nH]cn1)C(=O)N[C@@H](CC(=O)O)C(=O)N[C@@H](CCCCN)C(=O)N[C@@H](Cc1ccc(O)cc1)C(=O)NCC(=O)N[C@@H](CC(C)C)C(=O)N[C@@H](C)C(N)=O [(−)9 to (+)29 galanin, porcine] | 7.85 | 51.3 | 5.43 | 3.47 | 4.17 | 50.1 |  |  |  |  |  |  | 
2 | CC[C@H](C)[C@H](NC(=O)[C@H](C)NC(=O)[C@H](Cc1c[nH]cn1)NC(=O)[C@@H]1CCCN1C(=O)CNC(=O)[C@H](CC(C)C)NC(=O)[C@H](CC(C)C)NC(=O)[C@H](Cc1ccc(O)c(I)c1)NC(=O)CNC(=O)[C@H](C)NC(=O)[C@H](CO)NC(=O)[C@H](CC(N)=O)NC(=O)[C@H](CC(C)C)NC(=O)[C@@H](NC(=O)[C@@H](Cc1c[nH]c2ccccc12)NC(=O)CN)[C@@H](C)O)C(=O)N[C@@H](CC(=O)O)C(=O)N[C@@H](CC(N)=O)C(=O)N[C@@H](Cc1c[nH]cn1)C(=O)N[C@@H](CCCNC(=N)N)C(=O)N[C@@H](CO)C(=O)N[C@@H](Cc1ccccc1)C(=O)N[C@@H](Cc1c[nH]cn1)C(=O)N[C@@H](CC(=O)O)C(=O)N[C@@H](CCCCN)C(=O)N[C@@H](Cc1ccc(O)c(I)c1)C(=O)NCC(=O)N[C@@H](CC(C)C)C(=O)N[C@@H](C)C(N)=O [D-Trp2-(d-iodo-L-Tyr9)-(3-iodo-L-Tyr26)-galanin] |  |  |  |  | 182 | 933 |  |  |  |  |  |  | 
3 | CNC[C@H](O)c1ccc(O)c(O)c1 [epinephrine] |  |  |  |  |  |  | stimulates transient Cl^− currents |  |  |  |  |  | 
4 | CC[C@H](C)[C@H](NC(=O)[C@H](C)NC(=O)[C@H](Cc1c[nH]cn1)NC(=O)[C@@H]1CCCN1C(=O)CNC(=O)[C@H](CC(C)C)NC(=O)[C@H](CC(C)C)NC(=O)[C@H](Cc1ccc(O)cc1)NC(=O)CNC(=O)[C@H](C)NC(=O)[C@H](CO)NC(=O)[C@H](CC(N)=O)NC(=O)[C@H](CC(C)C)NC(=O)[C@@H](NC(=O)[C@H](Cc1c[nH]c2ccccc12)NC(=O)CNC(=O)[C@H](CCCNC(=N)N)NC(=O)[C@H](CCCCN)NC(=O)[C@H](CCC(=O)O)NC(=O)[C@H](CCCCN)NC(=O)[C@@H](NC(=O)[C@@H]1CCCN1C(=O)[C@@H](N)CO)C(C)C)[C@@H](C)O)C(=O)N[C@@H](CC(=O)O)C(=O)N[C@@H](CC(N)=O)C(=O)N[C@@H](Cc1c[nH]cn1)C(=O)N[C@@H](CCCNC(=N)N)C(=O)N[C@@H](CO)C(=O)N[C@@H](Cc1ccccc1)C(=O)N[C@@H](Cc1c[nH]cn1)C(=O)N[C@@H](CC(=O)O)C(=O)N[C@@H](CCCCN)C(=O)N[C@@H](Cc1ccc(O)cc1)C(=O)NCC(=O)N[C@@H](CC(C)C)C(=O)N[C@@H](C)C(N)=O [galanin −7 to +29, (−7) to (+29) galanin, porcine] | 6.84 | 36.3 | 4.95 | 3.16 |  | 28.8 |  | affinity comparable to that for porcine galanin | 1910 | evoked agonist activity | 29 | 28.8 | induces feeding
